Test results reported in patent publication EP4786454A1, “HETEROARYL DERIVATIVE AND USE THEREOF” (priority 2023, dated 2025).

Legend:
male CD-1 mice = assay: Maximal electroshock-induced epilepsy model, behavioral pharmacodynamics; assay type: in vivo; details: 5 mg/kg orally, one hour before electrical stimulation
From the text: This study used behavioral tests in male CD-1 mice to investigate the effects of test compounds on acute epileptic seizures behavior induced by maximal electroshock.
Male CD-1 mice (25 to 35g) were used as the experimental animals and fed with standard feed (Beijing Vital River Laboratory Animal Technology Co., Ltd.).
After arriving at the animal facility, the experimental animals needed to acclimatize for at least one week. The mice were observed daily for vital signs, and randomly divided into groups according to their body weights one day before the drug administration. One hour before the electrical stimulation, different dosages of the test compound were orally administered to each group. On the day of the assay, the male CD-1 mice in each group were anesthetized locally at the cornea with 2% lidocaine. Then, silver bipolar electrodes were used to electrically stimulate the cornea of the mice with 18 mA, 60 Hz, a pulse width of 0.6 ms, and a stimulation time of 1 s to induce seizures. Subsequently, the latency of seizures and the duration of limb rigidity in mice after the electrical stimulation were observed, and the protection rate from seizures for each group was statistically analyzed.

hKCNQ2/3 = target: T1, hKCNQ2/3 (Homo sapiens, UniProt O43525+O43526); assay: hKCNQ2/3 thallium flux assay (FLIPR); assay type: cell-based; details: agonistic effect, CHO cell line stably expressing hKCNQ2/3
T1 construct: expressed in transfected cells; host or cells: CHO
From the text: The present disclosure also provides the following assay methods: • Assay method 1: hKCNQ2/3 thallium flux assay • Purpose of the assay: To determine the in vitro concentration-response relationship of the compounds in a CHO cell line stably expressing hKCNQ2/3 using FLIPR thallium flux assay.
CHO cells stably transfected with hKCNQ2/3.
The cell line was passaged three times a week at a split ratio of 1:2 to 1:3. When the cells grew to a confluence degree of greater than 80% in a T-75 cell flask, they were digested with 0.25% trypsin-EDTA solution for about 1 minute, and then the cells were transferred from the cell flask for passage. According to the split ratio, the cells were transferred to another T-75 cell flask containing complete cell growth culture medium. Note: In order to maintain the logarithmic growth of cells, the cell growth should be maintained in a subconfluent monolayer state. The cells were passaged every 2 to 3 days according to the cell doubling time.
• (1) Day 1, cell preparation: The cells were digested according to the above method, and the cell density and viability were determined using Cell Countess. The volume of the single-cell suspension was adjusted with complete cell growth culture medium. Then, the hKCNQ2/3_CHO cells were seeded at a density of approximately 20,000 cells/well (30 µL/well) into a PDL-precoated 384-well plate. Then, the plate was incubated at 37 °C with 5% CO2 humidified air in an incubator overnight. • (2) Day 2, compound preparation: A test compound was diluted to a storage concentration with dimethyl sulfoxide (DMSO), and stored in a freezer at -20 °C. A compound addition program was set up on the ECHO liquid workstation, and the compound was added to the plate using the ECHO liquid workstation. A positive control was prepared using Retigabine (RTG) with a maximum concentration of 100 µM, which was subjected to a 3-fold dilution, resulting in a total of 9 doses constituting the plate map required for plating. Prepare the plate using a stimulation buffer containing 5 mM K^+ and 1 mM Tl^+. Note: 1) K2SO4 and Tl2SO4 were prepared in a 1× chloride-free buffer. When different voltage-gated potassium channels were involved, the concentrations of Tl^+ and K^+ were needed to be adjusted. The concentration of Tl^+ was approximately 0.5 mM to 5 mM, and the concentration of K^+ was approximately 5 mM to 30 mM. 2) Each 1 mM solution of K2SO4 and Tl2SO4 contained 2 mM K^+ and Tl^+. The final concentration should be calculated based on the ion concentrations. 3) TlCl was easily precipitated and a chloride-free buffer was required. • (3) Day 2, assay testing: When the cells reached the confluence degree, the cell analysis plate was taken out from the incubator. The assay buffer was prepared and the Tl^+ dye (Molecular Devices # R8222) was diluted. The culture medium was discarded using the liquid workstation Bravo and 25 µL of Tl^+ dye was added to each well. The plate was incubated for 1 hour, and then the cell analysis plate, composite plate, and FLIPR tip were placed in FLIPR^TETRA (Molecular Devices, USA) for FLIPR assay. The tip was set up, and then the baseline was read for 60 seconds. Then, 12.5 µL from the composite plate (3×) was added to the cell analysis plate, and the data were recorded for at least 5 minutes at the same time. • (4) Data processing: The maximum signal was generated with FLIPR software. Excel (2013) and Prism 6.01 were used for data analysis. The data quality control was performed with S/B > 2.00 and Z-factor > 0.50. IC50 or EC50 was defined as the midline between the lowest and the highest plateaus, and it was calculated using a four-parameter logistic model with Prism 6.01.
Purpose of the assay: To determine the in vitro concentration-response relationship of the compounds in a CHO cell line stably expressing hKCNQ2/3 using FLIPR thallium flux assay. […]

[1] = Plasma protein binding rate, equilibrium dialysis (dog plasma); assay type: in vitro ADME, beagle dogs; details: d (beagle dog plasma), dialysis 4 hours at 37 °C, read-out: Unbound PPB%
Protocol: (§1) The protein binding rates of the compounds in the plasma of CD-1 mice, Sprague-Dawley rats, beagle dogs, cynomolgus monkeys, and human were determined using equilibrium dialysis method.
(§2) Commercially available plasma, dual-layer dialysis membrane, and equilibrium dialysis device.
(§3) The dual-layer dialysis membrane was soaked in ultrapure water for about 1 hour, removed and then divided into two parts. It was then soaked in an ethanol:water (20:80, v:v) solution for 20 minutes or placed at 2 to 8 °C, and it was valid for 1 month. Before starting the assay, the dialysis membrane was rinsed twice with ultrapure water and then soaked in ultrapure water for another 20 minutes for later use.
(§4) On the day of assay, the frozen plasma of CD-1 mice, Sprague-Dawley rats, beagle dogs, cynomolgus monkeys, and human was thawed in running cold tap water. After the plasma was completely thawed, the plasma was centrifuged at 3220×g for 5 minutes, and the suspended substances and precipitates in it were removed. The pH of the plasma was determined. The plasma with a pH in the range of 7.4 ± 0.1 was directly used, or the plasma with a pH in the range of 7.4 ± 0.1 after an adjustment with 1% phosphoric acid or 1M sodium hydroxide was used.
(§5) Preparation process of plasma samples: 597 µL of blank plasma from each of the above five species was taken, respectively. 3 µL of a compound or warfarin working solution was added, and the mixture was mixed thoroughly to give a plasma sample with a compound concentration of 2 µM and a warfarin concentration of 2 µM (n=1). The concentration of the organic phase DMSO was 0.5%. The sample was thoroughly mixed before proceeding to the next step.
(§6) Preparation process of T0 samples: 50 µL of a plasma sample containing the compound and warfarin was transferred to a sample receiving plate (n=3), and 50 µL of blank PBS was immediately added. Then, 500 µL of stop solution was added to the T0 sample of the compound and warfarin, and the mixture was stored at 2 to 8 °C, waiting to be processed later together with other dialysis-processed samples.
(§7) Dialysis process of plasma samples: 100 µL of a compound (2 µM) and warfarin (2 µM) plasma sample was added to the donor of each dialysis well (n=3), and 100 µL of blank PBS was added to the corresponding receiver of the dialysis well. The dialysis plate was placed in a 5% CO2 incubator, and incubated at 37 °C with shaking at approximately 100 rpm for 4 hours.
(§8) After the dialysis was completed, 50 µL of dialysis-processed PBS sample and dialysis-processed plasma sample (n=3) were transferred to a new 96-well plate (sample receiving plate). The corresponding volume of the corresponding blank plasma or PBS was added to the sample to make the final volume of each sample well 100 µL, with a plasma to PBS volume ratio of 1:1. All the samples were analyzed by LC-MS/MS after protein precipitation.
(§9) The formulas for calculating the unbound fraction (%Unbound), bound fraction (%Bound) and recovery fraction (%Recovery) of a compound are as follows: %Unbound = 100 ×F / T %Bound = 100 - %Unbound %Recovery = 100 ×(F + T)/ T0 wherein F is the concentration of the compound at the receiver of dialysis; T is the concentration of the compound at the supply end of dialysis; and T0 is the concentration of the compound in the plasma at time zero.

[2] = Plasma protein binding rate, equilibrium dialysis (monkey plasma); assay type: in vitro ADME, cynomolgus monkeys; details: c (cynomolgus monkey plasma), dialysis 4 hours at 37 °C, read-out: Unbound PPB%
Protocol: as §1, §2, §3, §4, §5, §6, §7, §8, §9

[3] = Plasma protein binding rate, equilibrium dialysis (mouse plasma); assay type: in vitro ADME, CD-1 mice; details: m (CD-1 mouse plasma), dialysis 4 hours at 37 °C, read-out: Unbound PPB%
Protocol: as §1, §2, §3, §4, §5, §6, §7, §8, §9

[4] = Plasma protein binding rate, equilibrium dialysis (rat plasma); assay type: in vitro ADME, Sprague-Dawley rats; details: r (Sprague-Dawley rat plasma), dialysis 4 hours at 37 °C, read-out: Unbound PPB%
Protocol: as §1, §2, §3, §4, §5, §6, §7, §8, §9

[5] = Plasma protein binding rate, equilibrium dialysis (human plasma); assay type: in vitro ADME; details: dialysis 4 hours at 37 °C, read-out: Unbound PPB%
Protocol: as §1, §2, §3, §4, §5, §6, §7, §8, §9

T1 sequence (O43525 whole entry): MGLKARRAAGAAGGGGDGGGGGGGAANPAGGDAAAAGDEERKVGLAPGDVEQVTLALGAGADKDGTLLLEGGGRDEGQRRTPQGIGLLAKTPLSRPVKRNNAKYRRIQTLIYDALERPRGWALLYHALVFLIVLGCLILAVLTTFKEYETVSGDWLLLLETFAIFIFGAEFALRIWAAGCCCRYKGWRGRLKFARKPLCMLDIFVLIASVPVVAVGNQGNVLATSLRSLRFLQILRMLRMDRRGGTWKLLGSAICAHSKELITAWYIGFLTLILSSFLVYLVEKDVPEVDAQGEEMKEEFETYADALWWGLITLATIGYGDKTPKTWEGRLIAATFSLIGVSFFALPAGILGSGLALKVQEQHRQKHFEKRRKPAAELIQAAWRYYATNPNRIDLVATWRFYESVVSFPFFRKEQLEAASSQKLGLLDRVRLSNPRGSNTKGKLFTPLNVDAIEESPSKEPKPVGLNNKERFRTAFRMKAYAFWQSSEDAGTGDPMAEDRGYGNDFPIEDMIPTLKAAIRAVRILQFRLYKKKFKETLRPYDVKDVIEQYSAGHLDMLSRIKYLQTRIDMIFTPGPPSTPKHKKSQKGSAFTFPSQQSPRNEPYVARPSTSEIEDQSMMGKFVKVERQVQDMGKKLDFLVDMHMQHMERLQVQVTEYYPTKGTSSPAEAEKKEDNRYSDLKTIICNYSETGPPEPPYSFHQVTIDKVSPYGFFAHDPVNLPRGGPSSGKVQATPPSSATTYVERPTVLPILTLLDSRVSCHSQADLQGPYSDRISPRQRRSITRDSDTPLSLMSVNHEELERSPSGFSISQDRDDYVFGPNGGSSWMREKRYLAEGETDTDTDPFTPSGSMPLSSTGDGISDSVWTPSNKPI
T1 sequence (O43526 whole entry): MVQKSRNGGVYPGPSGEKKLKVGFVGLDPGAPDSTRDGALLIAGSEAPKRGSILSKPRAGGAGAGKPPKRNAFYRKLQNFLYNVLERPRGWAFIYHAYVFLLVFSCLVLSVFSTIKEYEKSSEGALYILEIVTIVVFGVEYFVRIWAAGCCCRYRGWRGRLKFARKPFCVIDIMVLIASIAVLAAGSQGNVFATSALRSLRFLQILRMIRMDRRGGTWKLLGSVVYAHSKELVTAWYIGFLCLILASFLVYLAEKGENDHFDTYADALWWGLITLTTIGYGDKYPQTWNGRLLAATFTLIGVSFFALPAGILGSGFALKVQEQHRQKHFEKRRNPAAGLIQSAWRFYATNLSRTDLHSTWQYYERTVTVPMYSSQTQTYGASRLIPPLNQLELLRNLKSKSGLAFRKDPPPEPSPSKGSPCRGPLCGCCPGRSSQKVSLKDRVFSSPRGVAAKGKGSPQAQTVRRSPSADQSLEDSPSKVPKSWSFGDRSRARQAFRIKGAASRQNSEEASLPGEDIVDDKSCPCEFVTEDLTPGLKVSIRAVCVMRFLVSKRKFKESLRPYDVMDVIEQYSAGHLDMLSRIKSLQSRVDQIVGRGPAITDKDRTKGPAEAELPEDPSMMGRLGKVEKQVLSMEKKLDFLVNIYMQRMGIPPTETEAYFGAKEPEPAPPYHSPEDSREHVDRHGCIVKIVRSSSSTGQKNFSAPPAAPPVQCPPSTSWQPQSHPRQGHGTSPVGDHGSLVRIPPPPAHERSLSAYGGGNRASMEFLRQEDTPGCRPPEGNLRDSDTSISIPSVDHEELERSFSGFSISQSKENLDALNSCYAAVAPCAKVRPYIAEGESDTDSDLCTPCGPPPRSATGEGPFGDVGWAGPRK

Compound: CC(C)(C)CC(=O)Nc1nc2c(F)c3c(cc2n1C1CCC1)CCC3 [Compound 8]
- Protection rate from seizures (male CD-1 mice): 50%
- EC50 (hKCNQ2/3): 420 nM

Compound: CC(C)(C)CC(=O)Nc1nc2cc3c(cc2n1C(C)(C)C)CCC3 [Compound 10]
- Protection rate from seizures (male CD-1 mice): 33.33%
- EC50 (hKCNQ2/3): 120 nM

Compound: CC(C)(C)CC(=O)Nc1nc2cc3c(cc2n1C1CCC1)CCC3 [Compound 7]
- fraction unbound at 4 h, 2 µM [1]: 0.006
- Protection rate from seizures (male CD-1 mice): 66.67%
- fraction unbound at 4 h, 2 µM [2]: 0.012
- fraction unbound at 4 h, 2 µM [3]: 0.003
- EC50 (hKCNQ2/3): 420 nM
- fraction unbound at 4 h, 2 µM [4]: 0.003
- fraction unbound at 4 h, 2 µM [5]: 0.004

Compound: CC(C)(C)CC(=O)Nc1nc2cc3c(cc2n1C1(C)CCC1)CCC3 [Compound 9]
- fraction unbound at 4 h, 2 µM [1]: 0.004
- Protection rate from seizures (male CD-1 mice): 50%
- fraction unbound at 4 h, 2 µM [2]: 0.004
- fraction unbound at 4 h, 2 µM [3]: 0.002
- EC50 (hKCNQ2/3): 160 nM
- fraction unbound at 4 h, 2 µM [4]: 0.002
- fraction unbound at 4 h, 2 µM [5]: 0.003
